Results on nine molecules are retold here after patent publication US9475841B2, “Melanoma antigen peptide and uses thereof” (INSERM (INSTITUT NATIONAL DE LA SANTE ET DE LA RECHERCHE …, priority 2012, dated 2016).

Residues, ends and D or L forms follow the SMILES beside them.

Assay [1] relates to DQ2-restricted T cell clone 4E2.
The subject of assay [2] is DQ2-restricted 9C12 T cell clone. The conditions noted are these: 5 h.
Assay [3] relates to DRβ1*1101 restricted T cell clone 1A5. The conditions noted are these: 5 h.
Assay [4] has as its system MELOE-1 specific CD4 T cell clones. The experiment in a line: Processing of epitopes by autologous DC loaded with antigen; TNF-α production of T cell clones. The class given is cell-based, human. As to the method:
FIG. 4: Class II epitopes are naturally processed from MELOE-1 whole antigen. Autologous DC, were loaded (before or after fixation) with MELOE-12-46 (1 μM) or, as a negative control, with Melan-A16-40L peptide (1 μM), and matured. T cell clones were then stimulated with DC at a ratio 1:1, during 5 h in presence of Brefeldin A, then stained with APC-conjugated anti-CD3 mAb, fixed with 4% paraformaldehyde, labeled with PE-conjugated anti-TNF-α mAb and analyzed by flow cytometry. Histograms illustrated the % of TNF-α producing cells among CD3 positive T cells.
Monocytes were purified from PBMC of healthy donors by a CD14-enrichment kit, according the recommendations of the supplier (Stem Cell, France). Immature dendritic cells (iDC) were generated by culturing monocytes in RPMI supplemented with 20 mg/mL of human albumin, 1000 IU/mL of GM-CSF and 200 IU/mL of IL-4 for 5 days. Then, iDC were pulsed with the whole MELOE-1 (1 μM) protein or the modified Melan-A16-40 A27L as negative control (1 μM) and matured with 20 ng/mL of TNF-α and 50 μg/mL of PolyI:C for 4 hours at 37° C. Finally they were fixed for 1 minute with PBS/0.015% glutaraldehyde. Alternatively, iDC were first matured, fixed and then pulsed with antigens at the same concentration.
Alternatively, MELOE-1 specific CD4+ T cell clones were stimulated by autologous MELOE-1 loaded and matured DC at a 1:1 ratio. […]

Assay [5] deals with MELOE-1 specific CD4+ T cells. The experiment in a line: MELOE-1 CD4+ T cell responses in PBMC from healthy donors: restimulation of microcultures with overlapping peptides, CD4/TNF-α staining. The class given is cell-based, human. The conditions noted are these: for Microcultures containing MELOE-1 specific CD4+ T cells (TNF-α production): positive/tested microcultures; for donors in which CD4 responses against the region were detected: seven healthy donors. As to the method:
PBMC from healthy donors were stimulated with 10 μM of MELOE-1. After 14 days, the presence of CD4 T cells specific for the different regions of MELOE-1 was assessed by restimulating cells with MELOE-12-21, MELOE-111-30, MELOE-118-37 and MELOE-126-46 peptides, followed by CD4/TNF-α double staining and flow cytometry analysis. Between brackets is indicated the mean % of TNF-α producing CD4 T cells, in positive microcultures. NA: not available.
PBMC from healthy donors or melanoma patients (2·10^5 cells/well) were cultured for 14 days with 10 μM of MELOE-1 whole antigen (46 amino acids) in RPMI medium supplemented with 8% HS, 50 IU/ml of rIL-2 (Chiron, France) and L-Glutamin, in 96-well multiplates. Microcultures were then restimulated individually with each overlapping peptide (MELOE-12-21, MELOE-111-30, MELOE-118-37, MELOE-12646 or MELOE-122-46 for melanoma patients) in the presence of 10 μg/mL brefeldin A for 5 hours and the percentage of CD4^+ specific T cells was assessed by TNF-α, IFN-γ or IL-4 intracellular staining. A negative control without peptide was included in all experiments.
Our purpose was to look for the existence of class II helper epitopes all along MELOE-1 sequence (SEQ ID NO:20), in order to document the immunogenicity of the different regions of this melanoma antigen. We stimulated 2·10^7 PBMC from seven healthy donors with MELOE-1 whole antigen and tested, after a 14-day culture period the presence of CD4 T cells specific for each region of the protein. Microcultures were screened for TNFα production by CD4+ T cells, after restimulation with four MELOE-1 derived overlapping peptides (Table I), in an autopresentation assay. […] On the contrary, the central region 18-37, containing an already described DR11-restricted epitope (24-37) located just at the end of this 20-mer peptide (Rogel et al., 2011), induced specific responses in microcultures deriving from only 2/7 donors (HD9 and HD17, both expressing the DR11 element). In these two donors, we detected 6 and 7% of positive microcultures, containing between 0.6 to 3.7% of TNFα producing CD4 T cells.

Assay [6] relates to CD4 T cell clone 4E2-DQβ1*0201. The experiment in a line: Cytokine profile of CD4 T cell clone stimulated with cognate peptide (intracellular staining). The conditions noted are these: cognate peptide 10 μM, 5 hours. The class given is cell-based, human. Here is the method: Lymphocytes were stimulated for 5 hours in the presence of brefeldin A (10 μg/mL) either with peptide alone (10 μM) in an autopresentation assay or with B-EBV or HLA-class II expressing melanoma cells pulsed 2 hours with the cognate peptide, at a ratio 1:2. In some experiments, blocking mAb against HLA-DP (clone B7.21 from Dr Charron, UMR940, Paris), HLA-DQ (clone SPVL3, Beckman Coulter) or HLA-DR (clone L243, BD Biosciences) were added at a concentration of 12.5 μg/ml. Cells were then stained with APC-conjugated anti-CD4 mAb, fixed with 4% paraformaldehyde, labeled with PE-conjugated anti-cytokine mAb and analyzed by flow cytometry.
We also documented the T helper profile of each T cell clone, by stimulating the CD4 T cell clones with the cognate peptide, and analyzing cytokine production. All the clones expressed Th1 cytokines (TNFα, IFNγ, IL2 and GM-CSF). On the contrary, these clones differ in their expression of Th2 cytokines. Indeed, the two DQ2 restricted T cell clones (9C12 and 4E2) and the DR1 restricted one (5F9) also strongly express two Th2 cytokines (IL4, and IL13), whereas the DR11-restricted T cell clone only weakly expressed IL4 (Table IV). None of the CD4 T cell expresses IL10 or IL5 at a significant level.

The subject of assay [7] is DRβ1*0101 restricted T cell clone 5F9. The assay can be described thus: Minimal peptides recognized by CD4 T cell clone (peptide titration, TNF-α production). The class given is cell-based, human. The following applies: 5F9 T cell clone; 13-mer peptides. As to the method:
FIG. 5: Minimal peptides recognized by MELOE-1 specific CD4 T cell clones. MELOE-1 specific CD4 T cell clones were incubated with various concentrations of the indicated peptides during 5 hours in presence of Brefeldin A. TNF-α production was assessed by intracellular labeling with an anti-TNF-α specific antibody. The core peptide sequence is indicated in bold on each figure panel, and black circles illustrate the best fitting peptide.
Our T cell clones were reactive against 20-mer peptides that are probably not the exact peptides naturally processed. In order to formally identify the minimal recognized epitopes, we tested shorter peptides derived from each of the MELOE-1 recognized regions, chosen on the basis of the core peptide sequence supposed to be recognized by the T cell clones (indicated in bold on FIG. 5).
Three shorter peptides were better recognized by the DQ2-restricted 9C12 T cell clone, the shortest one being MELOE-17-19 (13-mer), recognized with an EC50 of 100 nM. The deletion of the two amino acids in C-term strongly reduces T cell clone recognition. […] Nonetheless all of these clones recognized a series of shortened peptides, thus we cannot formally assess that the shortest ones will be the exact peptides naturally presented on class II molecules.

The mark [8] stands for this setting: donor HD9 (DPβ1*0902/1501, DQβ1*0301, DRβ1*1104/1201).
[9] abbreviates: donor HD17 (DPβ1*0401/0301, DQβ1*0301/0603, DRβ1*1101/1301).
Where [10] appears, read: donor HD22 (DPβ1*0401/1101, DQβ1*0202, DRβ1*0701).
Where [11] appears, read: donor HD24 (DPβ1*0401/0101, DQβ1*0501/0602, DRβ1*0101/1501).
Setting [12] is: donor HD25 (DPβ1*0401/0402, DQβ1*0201, DRβ1*0301).
Setting [13] is: donor HD27 (DQβ1*501/0201, DRβ1*0101/0301).

In assay [1] (5 h), `CC[C@H](C)[C@H](NC(=O)[C@H](CCCNC(=N)N)NC(=O)[C@@H](N)CCC(=O)O)C(=O)N[C@@H](CO)C(=O)N[C@@H](CO)C(=O)N[C@H](C(=O)N[C@@H](CC(C)C)C(=O)N[C@@H](CC(N)=O)C(=O)N[C@@H](CC(=O)O)C(=O)N[C@@H](CCC(=O)O)C(=O)N[C@@H](CS)C(=O)N[C@@H](Cc1c[nH]c2ccccc12)C(=O)N1CCC[C@H]1C(=O)N[C@@H](C)C(=O)O)[C@@H](C)O` [31-44, ERISSTLNDECWPA] (H-ERISSTLNDECWPA-OH; N-terminus and C-terminus assumed) showed an EC50 of 100 nM.

In assay [2], `CC(C)C[C@H](NC(=O)[C@H](Cc1ccccc1)NC(=O)[C@H](CCC(N)=O)NC(=O)[C@H](CCC(=O)O)NC(=O)[C@H](CCCNC(=N)N)NC(=O)[C@H](CO)NC(=O)[C@@H](NC(=O)[C@H](C)NC(=O)[C@H](CCC(=O)O)NC(=O)[C@H](CC(=O)O)NC(=O)[C@@H]1CCCN1)[C@@H](C)O)C(=O)N1CCC[C@H]1C(=O)N[C@@H](CO)C(=O)O` [MELOE-17-19, PDEATSREQFLPS] (H-PDEATSREQFLPS-OH; N-terminus and C-terminus assumed) had an EC50 of 100 nM.

Consider `CC(C)C[C@H](NC(=O)[C@H](Cc1ccccc1)NC(=O)[C@@H](N)CCC(N)=O)C(=O)N1CCC[C@H]1C(=O)N[C@@H](CO)C(=O)N[C@@H](CCC(=O)O)C(=O)NCC(=O)N[C@@H](C)C(=O)N[C@@H](C)C(=O)N[C@@H](CS)C(=O)N1CCC[C@H]1C(=O)N1CCC[C@H]1C(=O)N[C@@H](Cc1c[nH]c2ccccc12)C(=O)O` [MELOE-115-27, QFLPSEGAACPPW] (H-QFLPSEGAACPPW-OH; N-terminus and C-terminus assumed), for which the EC50 in assay [3] was found to be 100 nM.

As to “MSCVGYPDEATSREQFLPSEGAACPPWHPSERISSTLNDECWPASL [MELOE-1, MELOE-1 whole antigen (46 amino acids)]”, the “recognition by specific CD4 T cell clones of DC loaded after fixation” value in assay [4] (autologous DC loaded after DC fixation) is reported as “only a weak recognition”. For the same molecule, the “reactivity of the four T cell clones against loaded autologous DC” value in assay [4] (iDC loaded with 1 μM in serum-free medium, matured, then fixed) was “reactive”.

For the molecule PSEGAACPPWHPSERISSTL [MELOE-118-37], the “mean % of TNF-α producing CD4 T cells, in positive microcultures” value in assay [5] (donor HD9) was “(1.4% ± 0.6)”; in assay [5] (donor HD17) it was “(3% ± 0.7)”. Also, the “Microcultures containing MELOE-1 specific CD4+ T cells (TNF-α production)” value in assay [5] (setting [8]) is given as 6/96; in assay [5] (setting [9]), 7/96; in assay [5] (setting [10]), 0/96; in assay [5] (setting [11]) it was 0/96; in assay [5] (setting [12]) it was 0/96; in assay [5] (setting [13]), 0/96. Moreover, the “Microcultures containing MELOE-1 specific CD4+ T cells (TNF-α production)” value in assay [5] (donor HD28 (DRβ1*0301)) is listed as 0/48. In addition, the figures for the “% of positive microcultures” value in assay [5] (healthy donor HD9 (first of the two donors named)) and in assay [5] (healthy donor HD17 (second of the two donors named)) were 6% and 7%, respectively. Also, the “donors in which CD4 responses against the region were detected” value in assay [5] was 2/7.

As for PWHPSERISSTLNDECWPASL [MELOE-126-46], the “mean % of TNF-α producing CD4 T cells, in positive microcultures” value in assay [5] (donor HD9) was “(1.5% ± 0.5)”; in assay [5] (donor HD17) it was “(5.2% ± 4.1)”; in assay [5] (donor HD22) it was “(1% ± 0.1)”; in assay [5] (donor HD25), “(1.1% ± 0.9)”. The “Microcultures containing MELOE-1 specific CD4+ T cells (TNF-α production)” value in assay [5] (setting [8]) is recorded as 5/96; in assay [5] (setting [9]), 10/96; in assay [5] (setting [10]) it was 2/96; in assay [5] (setting [11]) it was 0/96; in assay [5] (setting [12]) it was 15/96; in assay [5] (setting [13]), 0/96. Moreover, in assay [5] (donor HD28 (DRβ1*0301)), the “Microcultures containing MELOE-1 specific CD4+ T cells (TNF-α production)” value was 0/96. In addition, in assay [5], the “donors in which CD4 responses against the region were detected” value is listed as 4 out of 7. The “Cytokine profile: GM-CSF” value in assay [6] is “GM-CSF^high”. Moreover, the “Cytokine profile: IFN” value in assay [6] is recorded as “IFN^high”. The “Cytokine profile: IL2” value in assay [6] was “IL2^high”. Also, the “Cytokine profile: IL4” value in assay [6] was “IL4^high”. Moreover, the “Cytokine profile: IL5” value in assay [6] was “IL5^low”. In assay [6], the “Cytokine profile: IL10” value was “IL10^neg”. Moreover, the “Cytokine profile: IL13” value in assay [6] is on record as “IL13^high”. For the same molecule, the “Cytokine profile: TNF” value in assay [6] is listed as “TNF^high”.

RISSTLNDECWPA [32-44]: the “recognition by T cell clone” value in assay [1] (4E2 T cell clone, compared with 31-44) was “recognized to a lower extent”.

SREQFLPSEGAAC [MELOE-112-24]: the “recognition by T cell clone” value in assay [7] was “optimal shorter peptides”.

Turning to TSREQFLPSEGAA [MELOE-111-23], the “recognition by T cell clone” value in assay [7] is recorded as “optimal shorter peptides”.

In general, EC50 refers to the midpoint of the concentration-response curve. High values mean weaker potency, low ones greater potency.
